Experimental data taken from patent US10947289B2, “Glyco-modified atrial natriuretic peptide” (priority 2013, dated 2021).

Key:
cGMP level in blood = cGMP level in blood after subcutaneous administration to a monkey; type: in vivo
[1] = Detection of test substance in rat plasma by LC-MS/MS (Test Example 3); type: in vivo; settings: 100 nmol/kg i.v.; for Maximum time of detection after administration: rat plasma, LC-MS/MS, time at which the test substance was finally detected
How it was run: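 Reported as final detection time: LC-MS/MS measured test substance in rat plasma collected from the jugular vein at 15, 30, 60, 90, 120, 180 and 240 min post-dose. Sample prep used a labelled hANP internal standard, acidic solvent, and sequential 50K then 3K ultrafiltration, keeping the 3K retentate.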

[2] = Detection in blood after subcutaneous administration to a monkey; type: in vivo
[3] = system: cGMP concentration in plasma; experiment: cGMP concentration in plasma of rats after intravenous injection (Test Example 3); type: in vivo; settings: rat, 100 nmol/kg i.v.
Description: The duration time (the effect of persistently elevating cGMP in blood and the time for which a test substance was detectable in blood) of each modified peptide prepared in Example 2 in the blood of rats was examined by the following method:
Before the administration and 15, 30, 60, 90, 120, 180, and 240 minutes after the administration, blood was sampled (200 μL/sampling) over time from the jugular vein. The blood samples were immediately left on ice.
The collected blood samples were centrifuged at 5000 rpm at 4° C. for 5 minutes by use of a centrifuge (Sigma 4K15, rotor: Nr12130-H). The separated plasma samples were divided into two types (samples for PK measurement and for cGMP measurement) and stored at −80° C. until measurement.
The cGMP concentration in plasma was measured using Amersham cGMP Enzyme Immunoassay Biotrak™ (EIA) System (dual range) according to the protocol attached thereto.

human GC-A = molecular target: T1, human GC-A (Homo sapiens, UniProt P16066); experiment: cGMP elevating activity in CHO/human GC-A cells (Test Example 1); type: cell-based
T1 construct: expressed in transfected cells; host or cells: CHO cells
T1 sequence (P16066 33-1061): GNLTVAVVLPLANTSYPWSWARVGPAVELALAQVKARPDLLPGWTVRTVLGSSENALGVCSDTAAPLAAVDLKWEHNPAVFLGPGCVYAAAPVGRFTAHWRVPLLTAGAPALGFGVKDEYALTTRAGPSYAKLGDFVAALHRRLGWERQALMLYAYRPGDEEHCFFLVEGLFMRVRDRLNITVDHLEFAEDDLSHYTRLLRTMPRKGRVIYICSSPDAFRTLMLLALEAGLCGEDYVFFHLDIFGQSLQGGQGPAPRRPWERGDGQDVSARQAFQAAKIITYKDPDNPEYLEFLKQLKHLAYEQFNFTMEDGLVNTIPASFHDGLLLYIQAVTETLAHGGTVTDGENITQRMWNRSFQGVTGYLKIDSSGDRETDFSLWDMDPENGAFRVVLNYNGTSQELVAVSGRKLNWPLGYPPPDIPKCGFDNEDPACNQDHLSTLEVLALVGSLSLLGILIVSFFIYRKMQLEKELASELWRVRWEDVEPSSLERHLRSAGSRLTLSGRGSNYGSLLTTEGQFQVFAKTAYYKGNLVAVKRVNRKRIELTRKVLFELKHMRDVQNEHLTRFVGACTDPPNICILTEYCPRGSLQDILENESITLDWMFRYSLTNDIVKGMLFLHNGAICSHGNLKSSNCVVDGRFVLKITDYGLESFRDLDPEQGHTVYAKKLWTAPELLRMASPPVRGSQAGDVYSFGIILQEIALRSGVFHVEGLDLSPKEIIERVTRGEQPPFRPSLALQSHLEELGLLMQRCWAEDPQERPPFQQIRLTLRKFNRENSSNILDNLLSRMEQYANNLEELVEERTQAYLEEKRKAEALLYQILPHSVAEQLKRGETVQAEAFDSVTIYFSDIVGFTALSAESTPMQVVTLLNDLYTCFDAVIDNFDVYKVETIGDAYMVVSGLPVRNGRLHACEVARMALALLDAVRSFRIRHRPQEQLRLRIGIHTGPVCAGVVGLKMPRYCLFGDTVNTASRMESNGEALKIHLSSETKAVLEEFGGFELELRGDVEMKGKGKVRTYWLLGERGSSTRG
How it was run: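 cGMP in lysates was read by HTRF after a 15 min peptide exposure of GC-A-expressing CHO cells in a CO2 incubator, following 10 min room-temperature preincubation with 1.6 mM IBMX in KRB. T/C values were normalised between solvent wells (0) and 1 nM ANP wells (1).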

## CC[C@H](C)[C@@H]1NC(=O)[C@H](CCCNC(=N)N)NC(=O)[C@H](CC(=O)O)NC(=O)[C@H](CCSC)NC(=O)[C@H](CCCNC(=N)N)NC(=O)CNC(=O)CNC(=O)[C@H](Cc2ccccc2)NC(=O)[C@@H](NC(=O)[C@H](CO)NC(=O)[C@H](CO)NC(=O)[C@H](CCCNC(=N)N)NC(=O)[C@H](CCCNC(=N)N)NC(=O)[C@H](CC(C)C)NC(=O)[C@@H](N)CO)CSSC[C@@H](C(=O)N[C@@H](CC(N)=O)C(=O)N[C@@H](CO)C(=O)N[C@@H](Cc2ccccc2)C(=O)N[C@@H](CCCNC(=N)N)C(=O)N[C@@H](Cc2ccc(O)cc2)C(=O)O)NC(=O)CNC(=O)[C@H](CC(C)C)NC(=O)CNC(=O)[C@H](CO)NC(=O)[C@H](CCC(N)=O)NC(=O)[C@H](C)NC(=O)CNC1=O [Native hANP, hANP(1-28)]
cGMP level in blood
  Elevation of the cGMP level in blood after administration: returns, 60 minutes after the administration, to the same level as that before the administration
[1]
  Maximum time of detection after administration: 0 h
[1]; rat, 15 minutes after the administration
  Detection of test substance in plasma sample: no longer detected
[2]
  Detection in blood after administration: no longer detected in blood 30 minutes after the administration
[3]; plasma cGMP
  AUC60-240: ≤ 0 pmol·h/mL
[3]; plasma cGMP, 0 to 240 minutes, Pre-value as baseline, points under baseline negative
  All values integrated AUC 0-240: 13.90 (pmol/ml)*h
[3]; plasma cGMP, 60 to 240 minutes, Pre-value as baseline, points under baseline negative
  All values integrated AUC 60-240: −33.86 (pmol/ml)*h
[3]; plasma cGMP, 60 to 240 minutes, only points above baseline
  Pre-value and higher values integrated AUC 60-240: 0.00 (pmol/ml)*h
[3]
  Elevation of cGMP in plasma at 60 minutes or later: disappeared completely
  cGMP level 30 minutes after the administration: a level close to that before the start of the administration

## CC[C@H](C)[C@@H]1NC(=O)[C@H](CCCNC(=N)N)NC(=O)[C@H](CC(=O)O)NC(=O)[C@H](CCSC)NC(=O)[C@H](CCCNC(=N)N)NC(=O)CNC(=O)CNC(=O)[C@H](Cc2ccccc2)NC(=O)[C@@H](NC(=O)[C@H](CO)NC(=O)[C@H](CO)NC(=O)[C@H](CCCNC(=N)N)NC(=O)[C@H](CCCNC(=N)N)NC(=O)[C@H](CC(C)C)NC(=O)[C@H](CO)NC(=O)CCOCCOCCOCCOCCNC(=O)[C@H](CC(=O)N[C@@H]2O[C@H](CO)[C@@H](O[C@@H]3O[C@H](CO)[C@@H](O[C@@H]4O[C@H](CO[C@H]5O[C@H](CO)[C@@H](O)[C@H](O)[C@@H]5O[C@@H]5O[C@H](CO)[C@@H](O[C@@H]6O[C@H](CO[C@]7(C(=O)O)C[C@H](O)[C@@H](NC(C)=O)[C@H]([C@H](O)[C@H](O)CO)O7)[C@H](O)[C@H](O)[C@H]6O)[C@H](O)[C@H]5NC(C)=O)[C@@H](O)[C@H](O[C@H]5O[C@H](CO)[C@@H](O)[C@H](O)[C@@H]5O[C@@H]5O[C@H](CO)[C@@H](O[C@@H]6O[C@H](CO[C@]7(C(=O)O)C[C@H](O)[C@@H](NC(C)=O)[C@H]([C@H](O)[C@H](O)CO)O7)[C@H](O)[C@H](O)[C@H]6O)[C@H](O)[C@H]5NC(C)=O)[C@@H]4O)[C@H](O)[C@H]3NC(C)=O)[C@H](O)[C@H]2NC(C)=O)NC(=O)CO[C@@H]2O[C@H](CO)[C@@H](O[C@@H]3O[C@H](CO)[C@@H](O[C@@H]4O[C@H](CO[C@H]5O[C@H](CO)[C@@H](O)[C@H](O)[C@@H]5O[C@@H]5O[C@H](CO)[C@@H](O[C@@H]6O[C@H](CO[C@]7(C(=O)O)C[C@H](O)[C@@H](NC(C)=O)[C@H]([C@H](O)[C@H](O)CO)O7)[C@H](O)[C@H](O)[C@H]6O)[C@H](O)[C@H]5NC(C)=O)[C@@H](O)[C@H](O[C@H]5O[C@H](CO)[C@@H](O)[C@H](O)[C@@H]5O[C@@H]5O[C@H](CO)[C@@H](O[C@@H]6O[C@H](CO[C@]7(C(=O)O)C[C@H](O)[C@@H](NC(C)=O)[C@H]([C@H](O)[C@H](O)CO)O7)[C@H](O)[C@H](O)[C@H]6O)[C@H](O)[C@H]5NC(C)=O)[C@@H]4O)[C@H](O)[C@H]3NC(C)=O)[C@H](O)[C@H]2NC(C)=O)CSSC[C@@H](C(=O)N[C@@H](CC(N)=O)C(=O)N[C@@H](CO)C(=O)N[C@@H](Cc2ccccc2)C(=O)N[C@@H](CCCNC(=N)N)C(=O)N[C@@H](Cc2ccc(O)cc2)C(=O)O)NC(=O)CNC(=O)[C@H](CC(C)C)NC(=O)CNC(=O)[C@H](CO)NC(=O)[C@H](CCC(N)=O)NC(=O)[C@H](C)NC(=O)CNC1=O [Compound 2-13, SG-(SG-)Asn-PEG(3)-hANP(1-28)]
Human GC-A
  EC50: 0.34 nM
[1]
  Maximum time of detection after administration: 3 h

## CC[C@H](C)[C@@H]1NC(=O)[C@H](CCCNC(=N)N)NC(=O)[C@H](CC(=O)O)NC(=O)[C@H](CCSC)NC(=O)[C@H](CCCNC(=N)N)NC(=O)CNC(=O)CNC(=O)[C@H](Cc2ccccc2)NC(=O)[C@@H](NC(=O)[C@H](CO)NC(=O)[C@H](CO)NC(=O)[C@H](CCCNC(=N)N)NC(=O)[C@H](CCCNC(=N)N)NC(=O)[C@H](CC(C)C)NC(=O)[C@H](CO)NC(=O)[C@H](CC(=O)N[C@@H]2O[C@H](CO)[C@@H](O[C@@H]3O[C@H](CO)[C@@H](O[C@@H]4O[C@H](CO[C@H]5O[C@H](CO)[C@@H](O)[C@H](O)[C@@H]5O[C@@H]5O[C@H](CO)[C@@H](O[C@@H]6O[C@H](CO[C@]7(C(=O)O)C[C@H](O)[C@@H](NC(C)=O)[C@H]([C@H](O)[C@H](O)CO)O7)[C@H](O)[C@H](O)[C@H]6O)[C@H](O)[C@H]5NC(C)=O)[C@@H](O)[C@H](O[C@H]5O[C@H](CO)[C@@H](O)[C@H](O)[C@@H]5O[C@@H]5O[C@H](CO)[C@@H](O[C@@H]6O[C@H](CO[C@]7(C(=O)O)C[C@H](O)[C@@H](NC(C)=O)[C@H]([C@H](O)[C@H](O)CO)O7)[C@H](O)[C@H](O)[C@H]6O)[C@H](O)[C@H]5NC(C)=O)[C@@H]4O)[C@H](O)[C@H]3NC(C)=O)[C@H](O)[C@H]2NC(C)=O)NC(=O)CCOCCOCCOCCOCCNC(=O)CO[C@@H]2O[C@H](CO)[C@@H](O[C@@H]3O[C@H](CO)[C@@H](O[C@@H]4O[C@H](CO[C@H]5O[C@H](CO)[C@@H](O)[C@H](O)[C@@H]5O[C@@H]5O[C@H](CO)[C@@H](O[C@@H]6O[C@H](CO[C@]7(C(=O)O)C[C@H](O)[C@@H](NC(C)=O)[C@H]([C@H](O)[C@H](O)CO)O7)[C@H](O)[C@H](O)[C@H]6O)[C@H](O)[C@H]5NC(C)=O)[C@@H](O)[C@H](O[C@H]5O[C@H](CO)[C@@H](O)[C@H](O)[C@@H]5O[C@@H]5O[C@H](CO)[C@@H](O[C@@H]6O[C@H](CO[C@]7(C(=O)O)C[C@H](O)[C@@H](NC(C)=O)[C@H]([C@H](O)[C@H](O)CO)O7)[C@H](O)[C@H](O)[C@H]6O)[C@H](O)[C@H]5NC(C)=O)[C@@H]4O)[C@H](O)[C@H]3NC(C)=O)[C@H](O)[C@H]2NC(C)=O)CSSC[C@@H](C(=O)N[C@@H](CC(N)=O)C(=O)N[C@@H](CO)C(=O)N[C@@H](Cc2ccccc2)C(=O)N[C@@H](CCCNC(=N)N)C(=O)N[C@@H](Cc2ccc(O)cc2)C(=O)O)NC(=O)CNC(=O)[C@H](CC(C)C)NC(=O)CNC(=O)[C@H](CO)NC(=O)[C@H](CCC(N)=O)NC(=O)[C@H](C)NC(=O)CNC1=O [Compound 2-16, SG-PEG(3)-(SG-)Asn-hANP(1-28)]
Human GC-A
  EC50: 0.98 nM
[1]
  Maximum time of detection after administration: 2 h
